Experimental data: ChEMBL document CHEMBL1130734, “Design and synthesis of a biotinylated dopamine transporter ligand for the purification and labeling of dopaminergic neurons” (Bioorg Med Chem Lett, 1998)
pIC50: −log10 of the molar value.

Target: Sodium-dependent noradrenaline transporter (Homo sapiens, UniProt P23975)
Experiment: Compound was tested for its ability to inhibit the uptake of Norepinephrine in Norepinephrine transporter system
Type: functional

Chain of Sodium-dependent noradrenaline transporter (P23975 whole entry): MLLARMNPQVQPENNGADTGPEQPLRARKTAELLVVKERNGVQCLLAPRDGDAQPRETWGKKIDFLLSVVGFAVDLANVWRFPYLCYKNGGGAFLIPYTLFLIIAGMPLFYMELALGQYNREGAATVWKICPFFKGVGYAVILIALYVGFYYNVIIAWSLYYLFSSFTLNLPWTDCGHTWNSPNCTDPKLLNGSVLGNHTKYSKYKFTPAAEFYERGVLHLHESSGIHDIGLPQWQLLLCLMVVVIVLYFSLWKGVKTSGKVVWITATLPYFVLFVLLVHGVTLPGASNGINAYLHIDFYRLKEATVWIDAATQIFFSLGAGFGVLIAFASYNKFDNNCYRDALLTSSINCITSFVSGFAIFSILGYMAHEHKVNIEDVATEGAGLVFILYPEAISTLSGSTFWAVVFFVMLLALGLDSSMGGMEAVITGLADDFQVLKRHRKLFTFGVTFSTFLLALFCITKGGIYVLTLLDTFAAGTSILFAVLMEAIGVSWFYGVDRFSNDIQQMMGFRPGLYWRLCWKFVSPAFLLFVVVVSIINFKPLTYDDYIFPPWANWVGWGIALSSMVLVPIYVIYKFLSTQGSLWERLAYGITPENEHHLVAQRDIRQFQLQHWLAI

c1ccc(CCCN2CCN(CCOC(c3ccccc3)c3ccccc3)CC2)cc1
pIC50: 5.90
